Assay results from ChEMBL document CHEMBL3885881, “DrugMatrix”.

Species on record: Rattus norvegicus
Test: DrugMatrix - Regimen: Daily Repeat
Assay type: toxicity, organism-based, Sprague-Dawley
Design: regimen Daily Repeat, gender Male, age 6-8 weeks
Details: in vivo, po, route oral GAVAGE, vehicle .5 % CMC; for BASOPHIL / EOSINOPHIL / ERYTHROCYTE COUNT / HEMATOCRIT / HEMOGLOBIN / LEUKOCYTE COUNT / LYMPHOCYTE / MEAN CORPUSCULAR HEMOGLOBIN / MEAN CORPUSCULAR HEMOGLOBIN CONCENTRATION / MEAN CORPUSCULAR VOLUME / MONOCYTE / NEUTROPHIL / PLATELET COUNT: tissue Blood; for ALANINE AMINOTRANSFERASE / ALBUMIN / ALKALINE PHOSPHATASE / ASPARTATE AMINOTRANSFERASE / BLOOD UREA NITROGEN / CHLORIDE / CHOLESTEROL / CREATINE PHOSPHOKINASE / CREATININE / GLUCOSE / PHOSPHORUS / POTASSIUM / SODIUM / TOTAL PROTEIN: tissue Plasma
[1] = 0 mg/kg, 72 h, dose level Control, time 3 day
[2] = 0 mg/kg, 120 h, dose level Control, time 5 day
[3] = 50 mg/kg, 72 h, dose level Low, time 3 day
[4] = 50 mg/kg, 120 h, dose level Low, time 5 day
[5] = 2000 mg/kg, 72 h, dose level High, time 3 day
[6] = 2000 mg/kg, 120 h, dose level High, time 5 day

SMILES: NC1CCN(c2nc3c(cc2F)c(=O)c(C(=O)O)cn3-c2ccc(F)cc2F)C1 (configuration not stated) [TOSUFLOXACIN]
- BASOPHIL [1]: 0%
- EOSINOPHIL [1]: 0.4%
- ERYTHROCYTE COUNT [1]: 6.43 x10E6/uL
- HEMATOCRIT [1]: 37.36%
- HEMOGLOBIN [1]: 13.98 G/DL
- LEUKOCYTE COUNT [1]: 13 x10E3/uL
- LYMPHOCYTE [1]: 81.4%
- MEAN CORPUSCULAR HEMOGLOBIN [1]: 21.9 pg
- MEAN CORPUSCULAR HEMOGLOBIN CONCENTRATION [1]: 37.4 G/DL
- MEAN CORPUSCULAR VOLUME [1]: 58.52 fL
- MONOCYTE [1]: 0.4%
- NEUTROPHIL [1]: 18%
- PLATELET COUNT [1]: 1386 x10E3/uL
- ALANINE AMINOTRANSFERASE [1]: 39.33 u/L
- ALBUMIN [1]: 3.57 G/DL
- ALKALINE PHOSPHATASE [1]: 283.83 u/L
- ASPARTATE AMINOTRANSFERASE [1]: 69.5 u/L
- BLOOD UREA NITROGEN [1]: 14.83 mg/dL
- CHLORIDE [1]: 107.33 MEQ/L
- CHOLESTEROL [1]: 75.17 mg/dL
- CREATINE PHOSPHOKINASE [1]: 107.67 u/L
- CREATININE [1]: 0.48 mg/dL
- GLUCOSE [1]: 172.5 mg/dL
- PHOSPHORUS [1]: 10.48 mg/dL
- POTASSIUM [1]: 6.9 MEQ/L
- SODIUM [1]: 152.33 MEQ/L
- TOTAL PROTEIN [1]: 5.9 G/DL
- BASOPHIL [2]: 0%
- EOSINOPHIL [2]: 0.4%
- ERYTHROCYTE COUNT [2]: 6.96 x10E6/uL
- HEMATOCRIT [2]: 41.12%
- HEMOGLOBIN [2]: 15.24 G/DL
- LEUKOCYTE COUNT [2]: 11.06 x10E3/uL
- LYMPHOCYTE [2]: 88.6%
- MEAN CORPUSCULAR HEMOGLOBIN [2]: 21.96 pg
- MEAN CORPUSCULAR HEMOGLOBIN CONCENTRATION [2]: 37.1 G/DL
- MEAN CORPUSCULAR VOLUME [2]: 59.12 fL
- MONOCYTE [2]: 0.2%
- NEUTROPHIL [2]: 10.8%
- PLATELET COUNT [2]: 1155.8 x10E3/uL
- ALANINE AMINOTRANSFERASE [2]: 36.33 u/L
- ALBUMIN [2]: 3.72 G/DL
- ALKALINE PHOSPHATASE [2]: 340.33 u/L
- ASPARTATE AMINOTRANSFERASE [2]: 68.33 u/L
- BLOOD UREA NITROGEN [2]: 15 mg/dL
- CHLORIDE [2]: 108.17 MEQ/L
- CHOLESTEROL [2]: 74.67 mg/dL
- CREATINE PHOSPHOKINASE [2]: 110.67 u/L
- CREATININE [2]: 0.47 mg/dL
- GLUCOSE [2]: 171.33 mg/dL
- PHOSPHORUS [2]: 10.05 mg/dL
- POTASSIUM [2]: 6.7 MEQ/L
- SODIUM [2]: 155.5 MEQ/L
- TOTAL PROTEIN [2]: 6.33 G/DL
- BASOPHIL [3]: 0%
- EOSINOPHIL [3]: 0%
- ERYTHROCYTE COUNT [3]: 6.96 x10E6/uL
- HEMATOCRIT [3]: 39.2%
- HEMOGLOBIN [3]: 14.2 G/DL
- LEUKOCYTE COUNT [3]: 12.93 x10E3/uL
- LYMPHOCYTE [3]: 90%
- MEAN CORPUSCULAR HEMOGLOBIN [3]: 20.4 pg
- MEAN CORPUSCULAR HEMOGLOBIN CONCENTRATION [3]: 36.27 G/DL
- MEAN CORPUSCULAR VOLUME [3]: 56.3 fL
- MONOCYTE [3]: 0%
- NEUTROPHIL [3]: 10%
- PLATELET COUNT [3]: 1074.33 x10E3/uL
- ALANINE AMINOTRANSFERASE [3]: 36.67 u/L
- ALBUMIN [3]: 3.4 G/DL
- ALKALINE PHOSPHATASE [3]: 240 u/L
- ASPARTATE AMINOTRANSFERASE [3]: 66.33 u/L
- BLOOD UREA NITROGEN [3]: 13 mg/dL
- CHLORIDE [3]: 106.33 MEQ/L
- CHOLESTEROL [3]: 63 mg/dL
- CREATINE PHOSPHOKINASE [3]: 121.33 u/L
- CREATININE [3]: 0.53 mg/dL
- GLUCOSE [3]: 176.67 mg/dL
- PHOSPHORUS [3]: 10.7 mg/dL
- POTASSIUM [3]: 6.8 MEQ/L
- SODIUM [3]: 151.33 MEQ/L
- TOTAL PROTEIN [3]: 5.6 G/DL
- BASOPHIL [4]: 0%
- EOSINOPHIL [4]: 0%
- ERYTHROCYTE COUNT [4]: 6.08 x10E6/uL
- HEMATOCRIT [4]: 34.23%
- HEMOGLOBIN [4]: 12.7 G/DL
- LEUKOCYTE COUNT [4]: 19.4 x10E3/uL
- LYMPHOCYTE [4]: 93.33%
- MEAN CORPUSCULAR HEMOGLOBIN [4]: 21 pg
- MEAN CORPUSCULAR HEMOGLOBIN CONCENTRATION [4]: 37.13 G/DL
- MEAN CORPUSCULAR VOLUME [4]: 56.57 fL
- MONOCYTE [4]: 0%
- NEUTROPHIL [4]: 6.67%
- PLATELET COUNT [4]: 1222.33 x10E3/uL
- ALANINE AMINOTRANSFERASE [4]: 34 u/L
- ALBUMIN [4]: 3.43 G/DL
- ALKALINE PHOSPHATASE [4]: 218.33 u/L
- ASPARTATE AMINOTRANSFERASE [4]: 56.33 u/L
- BLOOD UREA NITROGEN [4]: 11 mg/dL
- CHLORIDE [4]: 108 MEQ/L
- CHOLESTEROL [4]: 63.33 mg/dL
- CREATINE PHOSPHOKINASE [4]: 106.33 u/L
- CREATININE [4]: 0.5 mg/dL
- GLUCOSE [4]: 169.67 mg/dL
- PHOSPHORUS [4]: 10.13 mg/dL
- POTASSIUM [4]: 6.4 MEQ/L
- SODIUM [4]: 152 MEQ/L
- TOTAL PROTEIN [4]: 5.67 G/DL
- BASOPHIL [5]: 0%
- EOSINOPHIL [5]: 0%
- ERYTHROCYTE COUNT [5]: 6.75 x10E6/uL
- HEMATOCRIT [5]: 40.45%
- HEMOGLOBIN [5]: 14.85 G/DL
- LEUKOCYTE COUNT [5]: 13.75 x10E3/uL
- LYMPHOCYTE [5]: 88.5%
- MEAN CORPUSCULAR HEMOGLOBIN [5]: 22.05 pg
- MEAN CORPUSCULAR HEMOGLOBIN CONCENTRATION [5]: 36.65 G/DL
- MEAN CORPUSCULAR VOLUME [5]: 59.95 fL
- MONOCYTE [5]: 0%
- NEUTROPHIL [5]: 11.5%
- PLATELET COUNT [5]: 1313.5 x10E3/uL
- ALANINE AMINOTRANSFERASE [5]: 30.33 u/L
- ALBUMIN [5]: 3.63 G/DL
- ALKALINE PHOSPHATASE [5]: 215 u/L
- ASPARTATE AMINOTRANSFERASE [5]: 58.67 u/L
- BLOOD UREA NITROGEN [5]: 11.33 mg/dL
- CHLORIDE [5]: 106.67 MEQ/L
- CHOLESTEROL [5]: 79 mg/dL
- CREATINE PHOSPHOKINASE [5]: 134.33 u/L
- CREATININE [5]: 0.5 mg/dL
- GLUCOSE [5]: 175 mg/dL
- PHOSPHORUS [5]: 11.67 mg/dL
- POTASSIUM [5]: 7.4 MEQ/L
- SODIUM [5]: 153.33 MEQ/L
- TOTAL PROTEIN [5]: 6.17 G/DL
- BASOPHIL [6]: 0%
- EOSINOPHIL [6]: 0.33%
- ERYTHROCYTE COUNT [6]: 6.63 x10E6/uL
- HEMATOCRIT [6]: 39.83%
- HEMOGLOBIN [6]: 14.4 G/DL
- LEUKOCYTE COUNT [6]: 13.93 x10E3/uL
- LYMPHOCYTE [6]: 93.67%
- MEAN CORPUSCULAR HEMOGLOBIN [6]: 21.83 pg
- MEAN CORPUSCULAR HEMOGLOBIN CONCENTRATION [6]: 36.23 G/DL
- MEAN CORPUSCULAR VOLUME [6]: 60.27 fL
- MONOCYTE [6]: 0%
- NEUTROPHIL [6]: 6%
- PLATELET COUNT [6]: 1193.67 x10E3/uL
- ALANINE AMINOTRANSFERASE [6]: 45.67 u/L
- ALBUMIN [6]: 3.47 G/DL
- ALKALINE PHOSPHATASE [6]: 280 u/L
- ASPARTATE AMINOTRANSFERASE [6]: 64.67 u/L
- BLOOD UREA NITROGEN [6]: 9.67 mg/dL
- CHLORIDE [6]: 108 MEQ/L
- CHOLESTEROL [6]: 65.67 mg/dL
- CREATINE PHOSPHOKINASE [6]: 144.33 u/L
- CREATININE [6]: 0.5 mg/dL
- GLUCOSE [6]: 162.33 mg/dL
- PHOSPHORUS [6]: 9.47 mg/dL
- POTASSIUM [6]: 6.3 MEQ/L
- SODIUM [6]: 152.67 MEQ/L
- TOTAL PROTEIN [6]: 5.8 G/DL
